Results from US8642642B2, “Heterocyclic arylsulphones suitable for treating disorders that respond to modulation of the serotonin 5HT6 receptor” (Abbott Laboratories, priority 2006, dated 2014).
Counter-ions that a name gives are not always drawn.

Legend:
human 5-HT6 receptor = biological target: T1, human 5-HT6 receptor (Homo sapiens, UniProt P50406); assay: Human 5-HT6 receptor binding assay (3H-LSD displacement); conditions: membranes from HEK-293 cells, 2 nM 3H-LSD
T1 construct: expressed in transfected cells
T1 sequence (P50406 whole entry): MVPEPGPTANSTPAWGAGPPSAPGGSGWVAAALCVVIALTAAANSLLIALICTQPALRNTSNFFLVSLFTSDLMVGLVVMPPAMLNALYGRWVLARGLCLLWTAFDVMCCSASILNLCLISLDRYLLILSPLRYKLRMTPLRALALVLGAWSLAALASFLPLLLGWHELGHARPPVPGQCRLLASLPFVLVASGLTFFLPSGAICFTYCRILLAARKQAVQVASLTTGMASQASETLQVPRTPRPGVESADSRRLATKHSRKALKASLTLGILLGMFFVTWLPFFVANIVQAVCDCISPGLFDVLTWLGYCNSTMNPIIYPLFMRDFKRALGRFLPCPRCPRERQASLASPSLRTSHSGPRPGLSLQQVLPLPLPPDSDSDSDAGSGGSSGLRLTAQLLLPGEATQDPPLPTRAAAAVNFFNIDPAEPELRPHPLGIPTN
Method: (§1) The substance to be tested was either dissolved in methanol/Chremophor® (BASF-AG) or in dimethyl sulfoxide and then diluted with water to the desired concentration.
The compounds were dissolved in a concentration of 10^−2 M or 10^−3 M in DMSO. Further dilutions were performed in incubation buffer.
The procedure for the binding assay was based on the method of Monsma et al. (1993) Mol Pharmacol 43: 320-327. The binding reaction was carried out in a total volume of 0.250 ml for 60 min at 37° C. Membranes from HEK-293 cells stably expressing the human 5-HT6 receptor were incubated with 2 nM ^3H-LSD in the presence or absence of various concentrations of test compound for 60 min at 37° C. Non-specific binding was defined with 100 μM Serotonin (5-HT). Assays were performed in duplicate. Bound and free radioligand was separated by filtration and bound radioactivity determined by liquid scintillation counting.
The specific ligand binding to the receptors was defined as the difference between the total binding and the nonspecific binding determined in the presence of an excess of unlabelled 5-HT. The results are expressed as a percent of control specific binding obtained in the presence of compound. The IC50 values (concentration causing a half-maximal inhibition of control specific binding) and Hill coefficients (nH) were determined by non-linear regression analysis of the competition curves using Hill equation curve fitting.
The inhibition constants (Ki) were calculated from the Cheng Prusoff equation (Ki=IC50/(1+(L/KD)), where L=concentration of radioligand in the assay, and KD=affinity of the radioligand for the receptor).

[1] = biological target: T2, human dopamine D3 receptors (Homo sapiens, UniProt P35462); assay: Dopamine D3 receptor binding ([125I]-iodosulpride); conditions: for Ki: membranes from HEK-293 cells, 0.1 nM [125I]-iodosulpride; for Ki(D2)/Ki(D3): ratio of receptor binding constants, D2L versus D3
T2 construct: expressed in transfected cells
T2 sequence (P35462 whole entry): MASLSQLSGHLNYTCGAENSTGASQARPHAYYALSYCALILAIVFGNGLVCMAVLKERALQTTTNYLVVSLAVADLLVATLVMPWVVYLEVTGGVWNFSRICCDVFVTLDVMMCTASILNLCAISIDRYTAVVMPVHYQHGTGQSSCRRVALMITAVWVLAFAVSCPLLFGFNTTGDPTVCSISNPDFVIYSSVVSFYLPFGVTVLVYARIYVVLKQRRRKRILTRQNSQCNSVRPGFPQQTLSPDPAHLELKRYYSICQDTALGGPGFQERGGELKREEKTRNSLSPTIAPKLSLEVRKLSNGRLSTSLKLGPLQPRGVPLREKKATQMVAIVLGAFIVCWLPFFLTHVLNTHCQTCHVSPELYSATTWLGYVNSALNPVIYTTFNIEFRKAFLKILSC
Method: as §1
Each assay mixture was run in triplicate.
The incubation buffer contained 50 mM tris, 120 mM NaCl, 5 mM KCl, 2 mM CaCl2, 2 mM MgCl2 and 0.1% bovine serum albumin, 10 μM quinolone and 0.1% ascorbic acid (prepared fresh daily). The buffer was adjusted to pH 7.4 with HCl.
After having been incubated at 25° C. for 60 minutes, the assay mixtures were filtered through a Whatman GF/B glass fiber filter under vacuum using a cell collecting device. The filters were transferred to scintillation viols using a filter transfer system. After 4 ml of Ultima Gold® (Packard) have been added, the samples were shaken for one hour and the radioactivity was then counted in a Beta-Counter (Packard, Tricarb 2000 or 2200CA). The cpm values were converted into dpm using a standard quench series and the program belonging to the instrument.
The inhibition curves were analyzed by means of iterative nonlinear regression analysis using the Statistical Analysis System (SAS) which is similar to the “LIGAND” program described by Munson and Rodbard.

Row | Ki (human 5-HT6 receptor) | Ki [1] | Ki(D2)/Ki(D3) [1] | Compound
1 | 0.01 to 0.05 µM | 0.001 to 0.01 µM | +++ (between 100 and 150) | CCCN1CC[C@@H](c2ccc(NS(=O)(=O)c3cc(F)c(Br)cc3F)cc2)C1 [Example 3, 4-Bromo-3,6-difluoro-N-[4-((S)-1-propyl-pyrrolidin-3-yl)-phenyl]-benzenesulfonamide]
2 | 0.05 to 0.15 µM | – | – | CCCN1CC(c2ccc(NS(=O)(=O)c3cccc(C)c3)cc2)C1 [Example 50, 3-Methyl-N-[4-(1-propyl-azetidin-3-yl)-phenyl]-benzenesulfonamide]
3 | 0.01 to 0.05 µM | – | – | CCCN1CC(c2ccc(NS(=O)(=O)c3cccc(Br)c3)cc2)C1 [Example 52, 3-Bromo-N-[4-(1-propyl-azetidin-3-yl)-phenyl]-benzenesulfonamide]
4 | 0.01 to 0.05 µM | 0.001 to 0.01 µM | ++ (between 50 and 100) | CCCN1CC[C@@H](c2ccc(NS(=O)(=O)c3ccc(OC(F)(F)F)c(Br)c3)cc2)C1.Cl [Example 61, 3-Bromo-N-[4-((S)-1-propyl-pyrrolidin-3-yl)-phenyl]-4-trifluoromethoxy-benzenesulfonamide hydrochloride]
5 | 0.001 to 0.01 µM | 0.001 to 0.01 µM | ++++ (>150) | CCCN1CC[C@@H](c2ccc(NS(=O)(=O)c3ccc(Cl)s3)cc2)C1 [Example 62, 5-Chloro-thiophene-2-sulfonic acid [4-((S)-1-propyl-pyrrolidin-3-yl)-phenyl]-amide]
6 | 0.01 to 0.05 µM | – | – | O=S(=O)(Nc1cccc(C2CCCNC2)c1)c1cccc(OC(F)(F)F)c1 (stereo not shown) [Example 63, N-(3-Piperidin-3-yl-phenyl)-3-trifluoromethoxy-benzenesulfonamide hydrochloride]
7 | 0.01 to 0.05 µM | – | – | O=S(=O)(Nc1cccc([C@@H]2CCN(Cc3ccccc3)C2)c1)c1cccc(C(F)(F)F)c1 [Example 65, N-[3-((S)-1-Benzyl-pyrrolidin-3-yl)-phenyl]-3-trifluoromethyl-benzene sulfonamide]
8 | 0.01 to 0.05 µM | < 0.001 µM | +++ (between 100 and 150) | CCCN1CC[C@@H](c2ccc(NS(=O)(=O)c3ccc(-c4ccccn4)s3)cc2)C1.Cl [Example 66, 5-Pyridin-2-yl-thiophene-2-sulfonic acid [4-((S)-1-propyl-pyrrolidin-3-yl)-phenyl]-amide hydrochloride]
9 | 0.01 to 0.05 µM | 0.01 to 0.05 µM | +++ (between 100 and 150) | Cl.O=S(=O)(Nc1ccc([C@@H]2CCNC2)cc1)c1ccc(-c2ccccn2)s1 [Example 69, 5-Pyridin-2-yl-thiophene-2-sulfonic acid ((S)-4-pyrrolidin-3-yl-phenyl)-amide hydrochloride]
10 | 0.01 to 0.05 µM | – | – | CCCN1CC[C@@H](c2ccc(NS(=O)(=O)c3cc(C(F)(F)F)ccc3OC)cc2)C1 [Example 91, 2-Methoxy-N-[4-((S)-1-propyl-pyrrolidin-3-yl)-phenyl]-5-trifluoromethyl-benzenesulfonamide]

The remaining lines, values behind:

Row | Compound | Ki (human 5-HT6 receptor) | Ki [1] | Ki(D2)/Ki(D3) [1]
11 | 3-Trifluoromethyl-N-[4-((S)-1-propyl-pyrrolidin-3-yl)-phenyl]-benzenesulfonamide [Example 4] | 0.001 to 0.01 µM | 0.01 to 0.05 µM | + (between 10 and 50)
12 | CCCN1C[C@@H](CF)[C@H](c2ccc(NS(=O)(=O)c3cccc(C(F)(F)F)c3)cc2)C1 (relative stereo) [Example 95, N-[4-(trans-4-Fluoromethyl-1-propyl-pyrrolidin-3-yl)-phenyl]-3-trifluoromethyl-benzenesulfonamide] | 0.001 to 0.01 µM | 0.01 to 0.05 µM | + (between 10 and 50)
13 | CCCN1CC(c2ccc(NS(=O)(=O)c3cccc(Cl)c3Cl)cc2)C1 [Example 51, 2,3-Dichloro-N-[4-(1-propyl-azetidin-3-yl)-phenyl]-benzenesulfonamide] | 0.05 to 0.15 µM | – | –
14 | CCCN1CC(c2ccc(NS(=O)(=O)c3ccc(F)c(F)c3)cc2)C1 [Example 54, 3,4-Difluoro-N-[4-(1-propyl-azetidin-3-yl)-phenyl]-benzenesulfonamide] | 0.05 to 0.15 µM | – | –
15 | CCCN1CC[C@@H](c2ccc(NS(=O)(=O)c3ccc(Br)s3)cc2)C1.Cl [Example 59, 5-Bromo-thiophene-2-sulfonic acid [4-((S)-1-propyl-pyrrolidin-3-yl)-phenyl]-amide hydrochloride] | 0.001 to 0.01 µM | 0.001 to 0.01 µM | +++ (between 100 and 150)
16 | CCCc1ccc(S(=O)(=O)Nc2ccc([C@@H]3CCN(CCC)C3)cc2)s1 [Example 60, 5-Propyl-thiophene-2-sulfonic acid [4-((S)-1-propyl-pyrrolidin-3-yl)-phenyl]-amide] | 0.01 to 0.05 µM | < 0.001 µM | + (between 10 and 50)
17 | CCCN1CC[C@@H](c2ccc(NS(=O)(=O)c3cccc(C#N)c3)cc2)C1 [Example 64, 3-Cyano-N-[4-((S)-1-propyl-pyrrolidin-3-yl)-phenyl]-benzenesulfonamide hydrochloride] | 0.05 to 0.15 µM | – | –
18 | O=S(=O)(Nc1cccc([C@@H]2CCNC2)c1)c1cccc(C(F)(F)F)c1 [Example 67, N-[3-((S)-pyrrolidin-3-yl)-phenyl]-3-trifluoromethyl-benzene sulfonamide] | 0.001 to 0.01 µM | – | –
19 | CCCN1CC[C@@H](c2ccc(NS(=O)(=O)c3cccc(Br)c3)cc2)C1 [Example 70, 3-Bromo-N-[4-((S)-1-propyl-pyrrolidin-3-yl)-phenyl]-benzenesulfonamide] | 0.001 to 0.01 µM | 0.001 to 0.01 µM | ++ (between 50 and 100)
20 | CCCN1CC[C@@H](c2ccc(NS(=O)(=O)c3cccc(N4CCCC4)c3)cc2)C1 [Example 71, N-[4-((S)-1-Propyl-pyrrolidin-3-yl)-phenyl]-3-pyrrolidin-1-yl-benzenesulfonamide] | 0.001 to 0.01 µM | 0.01 to 0.05 µM | + (between 10 and 50)
21 | CCCN1CC[C@@H](c2ccc(NS(=O)(=O)c3ccc(-n4cccn4)s3)cc2)C1.Cl [Example 73, 5-Pyrazol-1-yl-thiophene-2-sulfonic acid [4-((S)-1-propyl-pyrrolidin-3-yl)-phenyl]-amide hydrochloride] | 0.01 to 0.05 µM | 0.001 to 0.01 µM | ++ (between 50 and 100)
22 | CCCN1CC[C@@H](c2ccc(NS(=O)(=O)c3cc(Cl)c(Cl)s3)cc2)C1.Cl [Example 74, 4,5-Dichloro-thiophene-2-sulfonic acid [4-((S)-1-propyl-pyrrolidin-3-yl)-phenyl]-amide hydrochloride] | 0.001 to 0.01 µM | 0.01 to 0.05 µM | ++ (between 50 and 100)
23 | CN1CC[C@@H](c2cccc(NS(=O)(=O)c3cccc(C(F)(F)F)c3)c2)C1 [Example 77, N-[3-((S)-1-Methyl-pyrrolidin-3-yl)-phenyl]-3-trifluoromethyl-benzenesulfonamide hydrochloride] | 0.001 to 0.01 µM | – | –
24 | CCCN1C[C@H](c2ccc(NS(=O)(=O)c3cccc(C(F)(F)F)c3)cc2)C[C@H]1C [Example 94, N-[4-((3S,5R)-5-Methyl-1-propyl-pyrrolidin-3-yl)-phenyl]-3-trifluoromethyl-benzenesulfonamide hydrochloride] | 0.01 to 0.05 µM | – | –
25 | O=S(=O)(Nc1ccc([C@@H]2CCNC2)cc1)c1cccc(C(F)(F)F)c1 [Example 101, N—((S)-4-Pyrrolidin-3-yl-phenyl)-3-trifluoromethyl-benzenesulfonamide] | 0.01 to 0.05 µM | – | –
26 | CCCN1CC[C@@H](c2ccc(NS(=O)(=O)c3cc(C(F)(F)F)ccc3F)cc2)C1 [Example 104, 2-Fluoro-N-[4-((S)-1-propyl-pyrrolidin-3-yl)-phenyl]-5-trifluoromethyl-benzenesulfonamide] | 0.01 to 0.05 µM | – | –
